The values below come from US20110245242A1, “Heterocyclically Substituted Anilinopyrimides” (Bayer CropScience AG, priority 2008, published 2011).

In data set [1] the test system is Fusarium proliferatum. As to the kind of experiment: Production of Fumonisin FB1 by Fusarium proliferatum (microtitre plates; FB1 by HPLC-MS/MS, growth by OD620). Format: cell-based. Particulars: for pI50 Fum: FB1 concentration in liquid medium after 6 days at 20° C., HPLC-MS/MS; for pI50 growth: OD620 at the beginning and after 6 days.
The nature of data set [2]: log P by LC-MS, method [b], acid range pH 2.7. Format: physicochemical. As to the method: The log P values were measured in accordance with EEC Directive 79/831 Annex V.A8 by HPLC (High Performance Liquid Chromatography) on reversed-phase columns (C 18) using the methods below:
[b] The LC-MS determination in the acid range was carried out at pH 2.7 using the mobile phases 0.1% aqueous formic acid and acetonitrile (contains 0.1% formic acid)
linear gradient from 10% acetonitrile to 95% acetonitrile.

Data set [3] is described as follows: log P by HPLC on reversed-phase columns (C 18), method [a], acidic range pH 2.3. Format: physicochemical. As to the method: The log P values were measured in accordance with EEC Directive 79/831 Annex V.A8 by HPLC (High Performance Liquid Chromatography) on reversed-phase columns (C 18) using the methods below: [a] The determination was carried out in the acidic range at pH 2.3 using the mobile phases 0.1% aqueous phosphoric acid and acetronitrile linear gradient from 10% acetonitrile to 95% acetronitrile.

The subject of data set [4] is Sphaerotheca fuliginea. Description: Sphaerotheca test (cucumber)/protective. The data set is classed as in vivo. The following applies: Podosphaera fuliginea, 168 h, active compound concentration of 500 ppm, protective, evaluation 7 days after the inoculation, read-out: efficacy.
The nature of data set [5]: physchem. Particulars: pH 7.8. Format: physicochemical. As to the method: The log P values were measured in accordance with EEC Directive 79/831 Annex V.A8 by HPLC (High Performance Liquid Chromatography) on reversed-phase columns (C 18) using the methods below: [c] The LC-MS determination in the neutral range was carried out at pH 7.8 using the mobile phases 0.001 molar aqueous ammonium bicarbonate solution and acetonitrile linear gradient from 10% acetonitrile to 95% acetonitrile.

By chromatographic logP is commonly meant a lipophilicity value derived from retention on a column.

Take `CC(C)Nc1nc(Nc2cccc(N3C(=O)OCC3C)c2)ncc1Cl` (stereo not shown) [Example 139]: in data set [1], the “pI50 Fum” value is recorded as 5 and the pI50 growth is 5. In addition, the log p in data set [2] (pH 2.7) is 1.64[b].
In data set [1], “1-(3-{[4-(Cyclopropylamino)-5-(trifluoromethyl)pyrimidin-2-yl]amino}phenyl)pyrrolidin-2-one [Example 236]” yielded a pI50 growth of 4.9. The “log P (pH 2.3)” value in data set [3] (pH 2.3) came to 1.49. For the same compound, the log p in data set [2] (method [b], LC-MS, acid range pH 2.7) is 1.49[b].
As for `CCOC1CCC(=O)N1c1cccc(Nc2ncc(Cl)c(NC3CC3)n2)c1` (stereo not shown) [Example 106, 1-(3-{[5-Chloro-4-(cyclopropylamino)pyrimidin-2-yl]amino}phenyl)-5-ethoxypyrrolidin-2-one], the chromatographic logP in data set [3] (pH 2.3, log P (pH 2.3)) was 1.65; in data set [3] (pH 2.3, log p), 1.65. Besides, in data set [4], the pest or weed control at 500 ppm is ≥ 70%.
For the compound `CN(c1nc(Nc2ccc(F)c(N3CCCC3=O)c2)ncc1Cl)C1CC1` [Example 198], in data set [1], the “pI50 Fum” value was 5.5. In data set [1], this compound had a pI50 growth of 4.8. Besides, the log p in data set [2] (pH 2.7) was 2.53[b]; in data set [5], 2.92[c];.
Turning to `O=C1OCCN1c1cccc(Nc2ncc(C(F)(F)F)c(NC3CCC3)n2)c1` [Example 194], in data set [1], the “pI50 Fum” value was 6.1 and the pI50 growth is 5.4. The log p in data set [2] (pH 2.7) is 2.58[b].
For the compound `CC(C)Nc1nc(Nc2cccc(N3CCOC3=O)c2)ncc1Br` [Example 146], the pI50 growth in data set [1] worked out at 5. Besides, in data set [2] (pH 2.7), the log p is 1.63[b].
Regarding `CC1CC1Nc1nc(Nc2cccc(N3CCCC3=O)c2)ncc1Cl` (stereo not shown) [Example 200], in data set [1], the “pI50 Fum” value turned out to be 4.8 and the pI50 growth is listed as 4.7. Also, in data set [2] (pH 2.7), the log p was 1.72[b].
`CC1CCN(c2cccc(Nc3ncc(Br)c(NC4CC4)n3)c2)C1=O` (stereo not shown) [Example 187]: in data set [1], the “pI50 Fum” value was 6.3 and the pI50 growth is reported as 5.8. For the same compound, the log p in data set [2] (pH 2.7) was 1.87[b]. For the same compound, the log p in data set [5] was 2.83[c];.
In the case of `CC1(C)CC(=O)N(c2cccc(Nc3ncc(Br)c(NC4CCC4)n3)c2)C1=O` [Example 63], in data set [1], the “pI50 Fum” value is reported as 6.6 and the pI50 growth was 5.7. Also, the log p in data set [3] (pH 2.3) was 2.19[a].
As to `CC1CC(C)N(c2cccc(Nc3ncc(Cl)c(N(C)C4CC4)n3)c2)C1=O` (stereo not shown) [Example 178], in data set [1], the “pI50 Fum” value is reported as 5.7 and the pI50 growth turned out to be 4.9. In addition, in data set [2] (pH 2.7), the log p was 2.61[b].
For `CC(C)Nc1nc(Nc2cccc(N3C(=O)CC(C)(C)C3=O)c2)ncc1Cl` [Example 140] the same measures were 5.7, 5.2 and 1.81[b].
Take `CC1(C)CC(=O)N(c2cccc(Nc3ncc(Cl)c(NC4CC4)n3)c2)C1=O` [Example 25]: in data set [1], the “pI50 Fum” value was 6.3 and the pI50 growth came to 5.6. In addition, the log p in data set [3] (pH 2.3) was 1.83[a].
For the compound `CC1CC(C)N(c2cccc(Nc3ncc(Br)c(NC4CC4)n3)c2)C1=O` (stereo not shown) [Example 84], the “pI50 Fum” value in data set [1] was found to be 6.3. Besides, the log p is 2.01[b] in data set [2] (pH 2.7) and 2.91[c]; in data set [5].
For the compound `CC1(C)CC(=O)N(c2cccc(Nc3ncc(Br)c(NC4CC4)n3)c2)C1=O` [Example 28], in data set [1], the “pI50 Fum” value was 6.2. The log p in data set [2] (pH 2.7) was 1.99[b].
For `CC1COC(=O)N1c1cccc(Nc2ncc(C(F)(F)F)c(NC3CC3)n2)c1` (stereo not shown) [Example 19] the same measures were 6.2 and 2.4[b].
As for `CCC1COC(=O)N1c1cccc(Nc2ncc(Cl)c(NC3CC3)n2)c1` (stereo not shown) [Example 31], in data set [1], the “pI50 Fum” value amounted to 6.3 and the pI50 growth came out at 5.7. The log p in data set [3] (pH 2.3) is 1.86[a].
Regarding `CC(C)Nc1nc(Nc2cccc(N3C(=O)C(C)CC3C)c2)ncc1Cl` (stereo not shown) [Example 141], in data set [1], the “pI50 Fum” value turned out to be 5.3 and the pI50 growth is 5. In data set [2] (pH 2.7), the log p is 1.88[b]. Besides, the log p in data set [5] was 3.15[c];.
In the case of `CCC(C)Nc1nc(Nc2cccc(N3CCCC3=O)c2)ncc1Cl` (stereo not shown) [Example 8], the “pI50 Fum” value in data set [1] is on record as 4.6. The compound further registered a pI50 growth in data set [1] of 4. For the same compound, the log p is 1.84[a]; in data set [3] (pH 2.3) and 2.92[c] in data set [5].
With `CC(Nc1nc(Nc2cccc(N3CCCC3=O)c2)ncc1C(F)(F)F)C(F)(F)F` (stereo not shown) [Example 220, 1-[3-({5-(Trifluoromethyl)-4-[(1,1,1-trifluoropropan-2-yl)amino]pyrimidin-2-yl}amino)phenyl]-pyrrolidin-2-one], the chromatographic logP in data set [3] (pH 2.3, log P (pH 2.3)) was found to be 3.08; in data set [2] (pH 2.7), 3.08; in data set [5], 3.05.
Turning to `CN1CCN(c2cccc(Nc3ncc(Cl)c(NC4CC4(C)C)n3)c2)C1=O` (stereo not shown) [Example 313], the log p is 1.93[a]; in data set [3] (pH 2.3), 1.93[b] in data set [2] (pH 2.7) and 3.06[c]; in data set [5].
Take `CC1CCC(=O)N1c1cccc(Nc2ncc(Br)c(NC3CCC3)n2)c1` (stereo not shown) [Example 36]: in data set [1], the “pI50 Fum” value was 6.2 and the pI50 growth was 5.3. Further, the log p in data set [2] (pH 2.7) was 1.97[b].
For `CC(C)[C@H]1COC(=O)N1c1cccc(Nc2ncc(Cl)c(NC3CC3)n2)c1` [Example 76] the same measures were 6.2, 5.6 and 2.47[b].
For `CC1COC(=O)N1c1cccc(Nc2ncc(Br)c(NC3CCC3)n2)c1` (stereo not shown) [Example 56], in data set [1], the “pI50 Fum” value came out at 6.2 and the pI50 growth was determined as 5.6. For the same compound, the log p in data set [3] (pH 2.3) was 1.97[a].
Consider `CCC1=C(C)CN(c2cccc(Nc3ncc(Cl)c(NC4CC4)n3)c2)C1=O` [Example 224], for which, in data set [1], the “pI50 Fum” value was 6 and the pI50 growth worked out at 5.3. Also, the log p in data set [3] (pH 2.3) was 2.2[a].
In the case of `CC(C)Nc1nc(Nc2cccc(N3CCOC3=O)c2)ncc1Cl` [Example 138], in data set [1], the “pI50 Fum” value was 5 and the pI50 growth is on record as 4.9. Further, the log p in data set [2] (pH 2.7) is 1.56[b].
On the same counts, the results for `CC1COC(=O)N1c1cccc(Nc2ncc(Br)c(NCC3CC3)n2)c1` (stereo not shown) [Example 131] are 6, 5.3 and 1.75[b].
As for `CC1(C)CC(=O)N(c2cccc(Nc3ncc(C(F)(F)F)c(NC4CC4)n3)c2)C1=O` [Example 62], in data set [1], the “pI50 Fum” value was determined as 6.2 and the pI50 growth is listed as 5.7. In addition, the log p in data set [3] (pH 2.3) was 2.63[a].
Consider `CC1CCC(=O)N1c1cccc(Nc2ncc(Br)c(NC3CC3)n2)c1` (stereo not shown) [Example 60], for which the “pI50 Fum” value in data set [1] was found to be 6.3. The compound also showed a pI50 growth in data set [1] of 5.5. Besides, the log p in data set [3] (pH 2.3) is 1.72[a];; in data set [2] (pH 2.7), 1.72[b].
As to `CC1COC(=O)N1c1cccc(Nc2ncc(Cl)c(NCC(F)(F)F)n2)c1` (stereo not shown) [Example 169], in data set [1], the “pI50 Fum” value was 5.5 and the pI50 growth is reported as 5.1. Moreover, the log p in data set [2] (pH 2.7) was 2.16[b].
With `CC1CC(=O)N(c2cccc(Nc3ncc(Br)c(NC4CCC4)n3)c2)C1=O` (stereo not shown) [Example 73], in data set [1], the “pI50 Fum” value was 6.4 and the pI50 growth is 5.8. For the same compound, in data set [2] (pH 2.7), the log p was 1.9[b].
Take `C[C@H]1COC(=O)N1c1cccc(Nc2ncc(Cl)c(NC3CC3)n2)c1` [Example 92]: in data set [1], the “pI50 Fum” value was 6.6 and the pI50 growth worked out at 5.7. Moreover, the log p in data set [2] (pH 2.7) is 1.54[b]. The log p in data set [5] was 2.42[c];.
With `CC1CC(=O)N(c2cccc(Nc3ncc(Cl)c(NC4CC4)n3)c2)C1=O` (stereo not shown) [Example 65], in data set [1], the “pI50 Fum” value was 6.2 and the pI50 growth is listed as 5.7. In addition, the log p in data set [2] (pH 2.7) was 1.59[b].
For `CN(c1nc(Nc2cccc(N3C(=O)CC(C)(C)C3=O)c2)ncc1Cl)C1CC1` [Example 177] the same measures were 6.1, 5.7 and 2.55[b].
For `CC1(C)CC(=O)N(c2cccc(Nc3ncc(C(F)(F)F)c(NCC4CC4)n3)c2)C1=O` [Example 196] the same measures were 5.3, 4.8 and 2.81[b].
On to `CC1CCN(c2cccc(Nc3ncc(Br)c(NC4CCC4)n3)c2)C1=O` (stereo not shown) [Example 27], for which the “pI50 Fum” value in data set [1] is given as 6.2. The same compound gave a pI50 growth in data set [1] of 5.6. In addition, the log p in data set [3] (pH 2.3) is 2.24[a];; in data set [2] (pH 2.7), 2.09[b].
As for `COC(=O)C1CC(=O)N(c2cccc(Nc3ncc(Cl)c(NC4CC4)n3)c2)C1` (stereo not shown) [Example 137], in data set [1], the “pI50 Fum” value is listed as 5.7 and the pI50 growth came out at 5.1. In addition, the log p in data set [2] (pH 2.7) is 1.52[b].
On the same counts, the results for `CC1CC1Nc1nc(Nc2cccc(N3CCCC3=O)c2)ncc1C(F)(F)F` (stereo not shown) [Example 219] are 6.3, 5.5 and 2.79[b].
